Test results taken from patent US7094758B2, “Apoptotic compounds” (Board of Regents, The University of Texas System, priority 2000, dated 2006).

How the values were obtained:
Wap-ras tumors = test: In vivo therapy in the WAP-RAS transgenic model; conditions: Wap-ras transgenic mice with well developed tumors; peptoid 20 mpk po, paclitaxel 5 mpk ip
Procedure: Peptoid and Paclitaxel combination efficacy is also evaluated in the Wap-ras transgenic model.
Peptoid (20 mpk/dosing po) was dissolved in 20% hydroxyl-propyl-betacyclodexatrin (Vehicle I). 0.2 ml of peptoid solution is the oral dosing volume. Paclitaxel (5 mpk/dosing ip) was dissolved in a diluted ethanol/cremophor EL solution (vehicle II) and the i.p. dosing volume for paclitaxel was 0.1 ml.
The mice are weighed, randomized, and ear-marked on Day 0. Peptoid treatment and Vehicle I treatment began on Day 1 and continued every 12 hours until Day 21. Paclitaxel and Vehicle II treatments are started on Day 4 and continued daily on Day 5, 6, and 7.

[1] = target: T1, second BIR (baculoviral IAP repeat) motif of XIAP (Homo sapiens, UniProt P98170); test: In vitro IAP (BIR) binding/interaction assay, GST-mediated pull-down
T1 construct: recombinant IAP fragment (second BIR (baculoviral IAP repeat) motif of XIAP)
Procedure: Interaction between AV peptoids and IAPs was examined by GST-mediated pull-down assays. Approximately 0.4 mg of a recombinant IAP fragment (second BIR (baculoviral IAP repeat) motif of XIAP) was bound to […] of glutathione resin as a GST-fusion protein and incubated with 0.5 mg of radiolabeled AV peptoids at room temperature. After extensive washing with an assay buffer containing 25 mM Tris, pH 8.0, 150 mM NaCl, and 2 mM dithiothreitol (DTT), the complex was eluted with 5 mM reduced glutathione and visualized by SDS-PAGE with Coomassie staining.
Smac stimulates activation of procaspase-3 by relieving the IAP inhibition^20, 21. All members of the IAP family contain at least one BIR (baculoviral IAP repeat) motif and many contain three^9.

procaspase-3 = test: Hela cell extracts: radiolabeled procaspase-3 activation assay; format: biochemical; conditions: S-100 extracts of HeLa cells, 35S-labeled caspase-3; AV peptoids (50 nM), Smac peptides 30–1000 mM; 30° C., 1 hr
Procedure: […] S-100 extracts of HeLa cells were incubated alone (Control), or with AV peptoids (50 nM) nM, or with […] of N-terminal Smac peptides in different lengths. The reactions were carried out with the addition of 1 mM DATP, 1 mM additional MgCl2, 0.2 mg/ml horse heart cytochrome c, and […] of in vitro translated, ^35S-labeled caspase-3 in a final volume of […]. The reaction mixtures were incubated at 30° C. for 1 hr followed by electrophoresis on a 15% PAGE gel. The gel was subsequently transferred onto a nitrocellulose filter and exposed to a phosphoimaging cassette.

T1 sequence (P98170 124-240 limits assumed): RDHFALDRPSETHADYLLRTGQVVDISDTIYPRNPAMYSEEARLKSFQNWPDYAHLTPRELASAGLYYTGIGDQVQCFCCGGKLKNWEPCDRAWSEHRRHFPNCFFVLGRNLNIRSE

Molecule: CC(=O)O[C@H]1C(=O)[C@@]2(C)[C@H]([C@H](OC(=O)c3ccccc3)[C@]3(O)C[C@H](OC(=O)[C@H](O)[C@@H](NC(=O)c4ccccc4)c4ccccc4)C(C)=C1C3(C)C)[C@]1(OC(C)=O)CO[C@@H]1C[C@@H]2O [Paclitaxel]
- tumor response to treatment, single agent (Wap-ras tumors): do not respond

Molecule: NH2-KQAIPVA-COOH (H-KQAIPVA-OH) [Smac-7R]
- IAP Binding ([1]; Table 4, GST pull-down with radiolabeled AV peptoid, grades 0, ++, +++, key not given): 0
- activation of procaspase-3 (procaspase-3): did not

B1: Smac: Second mitochondria-derived activator of caspases (DIABLO); mature form contains 184 amino acids (protein, UniProt Q9NR28 22-239, looked up)
Diablo IAP-binding …: LCVPVVANFKKRCFSELIRPWHKTVTIGFGVTLCAVPIAQKSEPHSLSSEALMRRAVSLVTDSTSTFLSQTTYALIEAITEYTKAVYTLTSLYRQYTSLLGKMNSEEEDEVWQVIIGARAEMTSKHQEYLKLETTWMTAVGLSEMAAEAAYQTGADQASITARNHIQLVKLQVEEVHQLSRKAETKLAEAQIEELRQKTQEEGEERAESEQEAYLRED
- specific binding/interaction with IAP (BIR domain of XIAP) ([1]; second or third BIR domain of XIAP): specifically interact
